Assay results as given in US4230712A, “7-Methyl-8β-lower alkyl or 7-methyl-8-lower alkyl B/C cis or trans morphinan-6-one compounds and therapeutic method of treating pain employing them” (Miles Laboratories, Inc., priority 1978, dated 1980).
Entries after “also recorded” stand apart in the source; their conditions may differ. Where a name gives a salt, the structure may show the parent alone. Read-outs that look alike come from different tables or passages of the source.

Experiments:
mice = test: acetic acid mouse writhing test (analgesic effect, s.c.); type: in vivo, male CD-1 mice; conditions: for ED50: mouse acetic acid writhing, s.c., dose reducing the number of writhes by 50%, IA @ dose = inactive at that dose; for analgesic activity: in words; for analgesic potency relative to TR-5222: more potent than TR-5222 by a factor; for duration of action: footnote ** to the ED50 value
Procedure: (A) Analgesic effects upon mice (acetic acid writhing test).
TEST A. ACETIC ACID MOUSE WRITHING TEST
The analgesic effects of test compounds were determined in mice by use of the acetic acid writhing test described by B. J. R. Whittle, Brit. J. Pharmacol., 22:246 (1964). In this test at least three groups of five male CD-1 mice (18-22 g) each were given subcutaneous doses of the test drug dissolved in either distilled water or distilled water acidified with HCl depending on the solubility of the compound. In all cases, 0.4 milliliter of a 0.5% V/V acetic acid in distilled water solution was administered intraperitoneally 15 minutes post drug. The number of writhes in a 20 min. interval beginning 5 minutes after the acetic acid injection were determined and compared with the number of writhes in control groups which had received only acetic acid.
Percent inhibition of writhing was calculated as: [formula]
The ED50 dose, i.e., the dose required to reduce the number of writhes by 50%, was determined graphically from a plot of % inhibition as a probit versus log dose. Confidence limits of 95% were calculated on the basis of those results falling in the range 16-84% inhibition. See Litchfield, J. T. and Wilcoxon, F., J. Pharmacol. Exp. Ther., 96, 99-113, (1949).

rats = test: narcotic antagonist activity, modified rat tail flick test against morphine; type: in vivo, male albino Wistar rats; design: AD50: unit not given here; conditions: for analgesic (agonist)/narcotic antagonist activity profile / narcotic antagonist activity: in words; for AD50: rat tail flick, dose inhibiting the morphine (ED80 dose s.c.) effect by 50%, IA @ dose = inactive at that dose; for narcotic antagonist potency relative to TR-5222: more potent than TR-5222 by a factor
Procedure: (B) Narcotic antagonist activity in rats (modified rat tail flick test).
TEST B. EVALUATION OF NARCOTIC ANTAGONIST ACTIVITY
The narcotic antagonist effects of test compounds were determined by a modification of the rat tail flick procedure of Harris and Pierson (J. Pharmacol. Exp. Ther. 143:141 [1964]).
Male albino Wistar rats (100-120 g) were used for this study. A rat's tail is so placed so as to cover a photocell. Heat is applied by a lamp in a reflector with a timer being connected to the lamp and photocell so that the timer goes on when the light is turned on and is turned off when the photocell is uncovered. A rheostat, incorporated into a heating lamp is used to adjust the intensity of the light falling on the tail of the rat such that the rat's control reaction time is from two to four seconds. Animals with a control reaction time outside this range are rejected. The rheostat adjustment is made only if a significant proportion (more than 2 out of every 10 rats) of the reaction times are outside the range of two to four seconds. Groups of five rats were used each time, and two control times were determined at 60 and 30 minutes prior to subcutaneous injection of the drug.
Thirty minutes after the last control run the test drug was given intraperitoneally. This was followed ten minutes later by an ED80 dose of morphine subcutaneously. The animals were retested at 20 minutes after the morphine injection. Control animals were given vehicle and morphine only. The data were calculated as follows: [formula]
The data were plotted on log-probit paper and AD50 values, i.e., the dose required to inhibit the morphine effect by 50% within 95% confidence limits, were determined by the method of Litchfield and Wilcoxon.

[1] = conclusion from Tests A and B, Hydrochloride

SMILES | ED50 (mice; sc, read-out: ED50) | analgesic (agonist)/narcotic antagonist activity profile (rats; conclusion from Tests A and B) | AD50 (rats) | analgesic activity (mice) | narcotic antagonist activity (rats) | also measured
C[C@@H]1[C@H]2[C@H]3Cc4ccc(O)cc4[C@@]2(CCN3CC2CCC2)CC(=O)[C@H]1C [TR-5195, 17-Cyclobutylmethyl-7α,8β-dimethyl-3-hydroxymorphinan-6-one] | 0.78 mg/kg | analgesic and narcotic antagonist activity | 2.0 | – | – | –
O=C1CC[C@@H]2[C@H]3Cc4ccc(O)cc4[C@@]2(CCN3CC2CCC2)C1 [TR-5223, 17-Cyclobutylmethyl-3-hydroxy-isomorphinan-6-one Hydrochloride, reference compound] | 0.94 mg/kg | – | 5.0 | – | – | analgesic potency relative to TR-5200 (mice; vs TR-5200): significantly less potent; analgesic (agonist)/narcotic antagonist activity profile (rats; [1]): mixed agonist/antagonist activity; also recorded: mixed analgesic/narcotic antagonist activity; mixed agonist/antagonist activity relative to TR-5130 (rats; vs TR-5130, conclusion from Tests A and B): substantially less than that of TR-5130; narcotic antagonist potency relative to TR-5200 (rats; vs TR-5200): significantly less potent
CC[C@H]1[C@@H]2[C@H]3Cc4ccc(O)cc4[C@@]2(CCN3CC2CCC2)CC(=O)[C@@H]1C [TR-5370, 17-Cyclobutylmethyl-8α-ethyl-3-hydroxy-7β-methyl-isomorphinan-6-one Hydrochloride] | – | – | > 10 | essentially inactive | essentially inactive | ED50 (mice): IA @ 10
O=C1CC[C@H]2[C@H]3Cc4ccc(O)cc4[C@@]2(CCN3CC2CC2)C1 [TR-5160, 17-Cyclopropylmethyl-3-hydroxy morphinan-6-one, reference compound] | 1.02 mg/kg | – | 2.3 | – | – | –
C[C@@H]1[C@H]2[C@H]3Cc4ccc(O)cc4[C@@]2(CCN3CC2CC2)CC(=O)[C@H]1C [TR-5196, 17-Cyclopropylmethyl-7α,8β-dimethyl-3-hydroxy-morphinan-6-one] | 7.8 mg/kg | – | 0.12 | – | – | –
COc1ccc2c(c1)[C@]13CCN(CC4CCC4)[C@H](C2)[C@@H]1CCC(=O)C3.Cl [TR-5148, 17-Cyclobutylmethyl-3-methoxymorphinan-6-one Hydrochloride, reference compound] | 0.22 mg/kg | – | IA @ 10 | potent analgesic | does not exhibit activity as a narcotic antagonist | –
Cl.O=C1CC[C@H]2[C@H]3Cc4ccc(O)cc4[C@@]2(CCN3CC2CCC2)C1 [TR-5153, 17-Cyclobutylmethyl-3-hydroxymorphinan-6-one Hydrochloride, reference compound] | 0.017 mg/kg | – | IA @ 10 | – | – | analgesic (agonist)/narcotic antagonist activity profile (rats; [1]): pure agonist; also recorded: pure analgesic
CCC[C@H]1CC(=O)C[C@]23CCN(CC4CCC4)[C@H](Cc4ccc(O)cc42)[C@H]13.Cl [TR-5204, 17-Cyclobutylmethyl-3-hydroxy-8β-n-propylmorphinan-6-one Hydrochloride] | 0.43 mg/kg | mixed analgesic/narcotic antagonist | 3.10 | – | – | analgesic potency relative to TR-5223 (mice; vs TR-5223): substantially more potent; narcotic antagonist potency relative to TR-5223 (rats; vs TR-5223): substantially more potent
COc1ccc2c(c1)[C@]13CCN(CC4CCC4)[C@H](C2)[C@@H]1[C@@H](C)CC(=O)C3.Cl [TR-5132, 17-Cyclobutylmethyl-3-methoxy-8β-methylmorphinan-6-one Hydrochloride] | 0.54 mg/kg | – | 6.4 | good activity | good activity | –
COc1ccc2c(c1)[C@]13CCN(CC4CC4)[C@H](C2)[C@H]1C[C@@H](C)C(=O)C3 [TR-5205, 17-Cyclopropylmethyl-3-methoxy-7β-methyl-isomorphinan-6-one Hydrochloride] | > 15 mg/kg | – | 1.2 | – | – | –
CC[C@@H]1[C@H]2[C@H]3Cc4ccc(O)cc4[C@@]2(CCN3CC2CCC2)CC(=O)[C@H]1C [TR-5333, 17-Cyclobutylmethyl-8β-ethyl-3-hydroxy-7α-methyl-morphinan-6-one] | 3.3 mg/kg | both analgesic and narcotic antagonist activity | 1.95 | – | – | –
C[C@H]1[C@@H]2[C@H]3Cc4ccc(O)cc4[C@@]2(CCN3CC2CC2)CC(=O)[C@@H]1C [TR-5343, 17-Cyclopropylmethyl-7β,8α-dimethyl-3-hydroxy-isomorphinan-6-one Hydrobromide] | 1.89 mg/kg | mixed analgesic and narcotic antagonist activity | 0.43 | – | – | analgesic potency relative to TR-5222 (mice): approximately two; analgesic potency relative to TR-5196 (mice; times as potent as geometric isomer TR-5196): approximately 4 times; narcotic antagonist potency relative to TR-5222 (rats): approximately two; narcotic antagonist potency relative to TR-5196 (rats; vs geometric isomer TR-5196): somewhat less potent
O=C1CC[C@@H]2[C@H]3Cc4ccc(O)cc4[C@@]2(CCN3CC2CC2)C1 [TR-5222, 17-Cyclopropylmethyl-3-hydroxy-isomorphinan-6-one Hydrochloride, reference compound] | 3.11 mg/kg | mixed analgesic and narcotic antagonist activity | 0.78 | – | – | duration of action (mice): short acting
CC[C@H]1CC(=O)C[C@]23CCN(CC4CCC4)[C@H](Cc4ccc(O)cc42)[C@H]13.Cl [TR-5200, 17-Cyclobutylmethyl-8β-ethyl-3-hydroxy-morphinan-6-one Hydrochloride] | 0.21 mg/kg | – | 0.32 | potent activity | potent activity | –
COc1ccc2c(c1)[C@]13CCN(CC4CC4)[C@H](C2)[C@@H]1[C@@H](C)[C@H](C)C(=O)C3 [TR-5188, 17-Cyclopropylmethyl-7α,8β-dimethyl-3-methoxy-morphinan-6-oneHydrochloride] | 1.03 mg/kg | mixed analgesic/narcotic antagonist | 4.7 | – | – | –
COc1ccc2c(c1)[C@]13CCN(CC4CC4)[C@H](C2)[C@H]1[C@H](C)[C@@H](C)C(=O)C3 [TR-5331, 17-Cyclopropylmethyl-7β,8α-dimethyl-3-methoxy-isomorphinan-6-one Hydrochloride] | > 10 mg/kg | – | > 10 | essentially inactive | essentially inactive | –
C[C@@H]1C[C@@H]2[C@H]3Cc4ccc(O)cc4[C@@]2(CCN3CC2CC2)CC1=O [TR-5225, 17-Cyclopropylmethyl-3-hydroxy-7β-methyl-isomorphinan-6-one Hydrobromide] | 0.72 mg/kg | – | 0.48 | – | – | duration of action (mice): short acting; analgesic potency relative to TR-5222 (mice): greater than four; analgesic potency relative to TR-5205 (mice; vs TR-5205): much more potent; narcotic antagonist potency relative to TR-5222 (rats): approximately 2; narcotic antagonist potency relative to TR-5205 (rats; vs TR-5205): approximately twice as potent
COc1ccc2c(c1)[C@]13CCN(CC4CC4)[C@H](C2)[C@@H]1[C@@H](C)CC(=O)C3 [TR-5119, 17-Cyclopropylmethyl-3-Methoxy-8β-Methylmorphinan-6-one] | 0.24 mg/kg | – | 1.45 | good activity | good activity | –
COc1ccc2c(c1)[C@]13CCN(CC4CC4)[C@H](C2)[C@@H]1CCC(=O)C3 [TR-5152, 17-Cyclopropylmethyl-3-methoxymorphinan-6-one Hydrochloride, reference compound] | 0.24 mg/kg | – | 5.4 | – | – | –
